The record followed here is ChEMBL document CHEMBL1201862, “PubChem BioAssay data set” (2004).

Calls of active or inactive are those of the source. Where only a bound is given, the exact number is not on record here.

Test [1] deals with Cytochrome P450 3A4 (Homo sapiens, UniProt P08684). The settings on record: Potency.
The nature of test [2]: P. falciparum Dd2 growth inhibitors, dose response, SYBR Green, cherry-picked samples (AID 1159567). Format: functional, cell-based.
In test [3] the target is Paired box protein Pax-8 (Homo sapiens, UniProt Q06710). Kind of test: inhibitors of PAX8-driven TPO luciferase reporter, dose response, RMG-I cells, cherry-pick (AID 687027).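 Further: luciferase reporter driven by Pax8 target thyroperoxidase promoter measured by SteadyGlo luminescence.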 Format: functional, cell-based. In general terms: Reporter assays use an easily measured gene product as a stand-in for the process of interest.
In test [4] the target is T1, Fatty acid synthase (Homo sapiens, UniProt P49327). As to the kind of experiment: FAS thioesterase domain inhibitors, dose response, biochemical, endpoint fluorescence intensity, uHTS hits (AID 624327).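 Further: fluorescence from hydrolysis of an O-methyl fluorescein acyl ester substrate by the enzyme.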 Format: functional.
In test [5] the target is T1, Fatty acid synthase. Kind of test: FAS thioesterase domain inhibitors, dose response, biochemical, kinetic fluorescence intensity (AID 624326).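 Further: rate of fluorescence rise from hydrolysis of a fluorogenic O-methyl fluorescein ester substrate.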 Format: functional.
The target in test [6] is T2, Polyadenylate-binding protein 1 (Homo sapiens, UniProt P11940). Kind of test: PABP1 MLLE–PAM2 interaction inhibitors, dose response, miRNA deadenylation inhibitor project, biochemical, fluorescence polarization, Cy5-PAM2 peptide, secondary (AID 602260). Format: functional. The settings on record: read-out: IC50_Mean. (In general: Fluorescence polarisation rises when a labelled molecule tumbles more slowly, as on binding a larger partner.)

For test [7], the target named is T2, Polyadenylate-binding protein 1. As to the kind of experiment: PABP1 MLLE–PAM2 binding inhibitor potency, dose response, biochemical, fluorescence polarization, FITC-PAM2 peptide (AID 602259). Format: functional. As to conditions: read-out: IC50_Mean.
Test [8] deals with T3, High affinity choline transporter 1 (Homo sapiens, UniProt Q9GZV3).
T3 sequence (Q9GZV3 whole entry): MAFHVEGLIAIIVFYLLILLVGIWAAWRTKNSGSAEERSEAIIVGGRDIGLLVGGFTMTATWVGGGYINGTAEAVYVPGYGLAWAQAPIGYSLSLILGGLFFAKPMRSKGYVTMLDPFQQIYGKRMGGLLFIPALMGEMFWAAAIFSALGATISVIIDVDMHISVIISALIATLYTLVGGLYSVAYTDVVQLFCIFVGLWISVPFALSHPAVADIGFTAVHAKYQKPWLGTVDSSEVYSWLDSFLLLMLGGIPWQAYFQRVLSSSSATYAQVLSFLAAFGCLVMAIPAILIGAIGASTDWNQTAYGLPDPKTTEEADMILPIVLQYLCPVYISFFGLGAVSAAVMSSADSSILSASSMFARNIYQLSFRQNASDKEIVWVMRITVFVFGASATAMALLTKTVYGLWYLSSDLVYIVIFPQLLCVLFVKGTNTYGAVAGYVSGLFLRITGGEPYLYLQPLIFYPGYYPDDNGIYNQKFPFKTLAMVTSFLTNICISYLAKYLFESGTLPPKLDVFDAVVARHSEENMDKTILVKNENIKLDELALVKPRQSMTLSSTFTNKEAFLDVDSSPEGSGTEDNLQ
Kind of test: CHT inhibitors, dose response, cell-based, 5-point CRC, membrane potential dye (AID 504840). Format: functional.

For test [9], the target named is Luciferin 4-monooxygenase (Photinus pyralis, UniProt P08659). Kind of test: firefly luciferase enzyme inhibitors, dose response, biochemical, luminescence (AID 1891).
The nature of test [10]: Luminescence Cell-Based Dose Confirmation HTS to Identify Inhibitors of Platelet Dense Granule Release. [Related pubchem assays: 1663 (Primary HTS), 1678 (Summary of Project)]. Format: functional.
The target in test [11] is T4, Protein skinhead-1 (Caenorhabditis elegans, UniProt P34707).
T4 sequence (P34707 whole entry): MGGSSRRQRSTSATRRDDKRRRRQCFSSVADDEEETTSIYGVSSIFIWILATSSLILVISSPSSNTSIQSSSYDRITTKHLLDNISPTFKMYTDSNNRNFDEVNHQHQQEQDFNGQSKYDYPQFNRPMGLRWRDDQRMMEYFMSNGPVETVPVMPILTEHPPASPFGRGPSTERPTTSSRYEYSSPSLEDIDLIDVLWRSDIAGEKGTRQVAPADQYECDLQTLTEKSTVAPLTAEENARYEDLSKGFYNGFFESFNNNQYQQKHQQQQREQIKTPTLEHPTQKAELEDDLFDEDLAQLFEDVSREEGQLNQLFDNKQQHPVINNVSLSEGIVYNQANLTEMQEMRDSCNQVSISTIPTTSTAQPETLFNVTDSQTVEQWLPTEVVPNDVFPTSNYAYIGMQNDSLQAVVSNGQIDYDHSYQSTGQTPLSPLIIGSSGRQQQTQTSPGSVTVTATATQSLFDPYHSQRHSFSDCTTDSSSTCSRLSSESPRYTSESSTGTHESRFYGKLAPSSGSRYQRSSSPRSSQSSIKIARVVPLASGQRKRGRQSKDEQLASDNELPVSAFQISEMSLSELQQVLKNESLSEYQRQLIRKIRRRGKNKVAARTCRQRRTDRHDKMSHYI
Format: functional.

Test [12] is described as follows: inhibitors of HIV Env-driven cell fusion, dose response, cherry-pick (AID 652057). Format: functional, cell-based.
Test [13] in a line: inhibitors of intracellular T. cruzi replication, confirmation, NIH3T3 host cells, beta-gal luminescence (AID 2044).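 Further: intracellular parasites grown in NIH/3T3 mouse fibroblasts as host cells; luminescent beta-galactosidase reporter signal from transgenic T. cruzi replicating inside host cells; inhibitors lower the luminescence signal.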 Format: functional, cell-based.
The nature of test [14]: cytotoxicity toward NIH3T3 fibroblasts, dose response, counter-screen, cell-based, ATP luminescence, mouse fibroblasts (AID 2010).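 Further: cells exposed to compound for about 90 hours before reading.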 Format: functional. (The purpose of a counterscreen is to sort out artefacts and off-target activity.)
Test [15] is described as follows: inhibitors of clade B AD8 Env fusion, dose response, cell-based, cherry-pick (AID 652062).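 Further: luciferase signal from cell-cell fusion driven by HIV-1 clade B AD8 Env; potency is for inhibitors of fusion seen as a drop in luminescence.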 Format: functional.

Chain of Luciferin 4-monooxygenase (P08659 whole entry): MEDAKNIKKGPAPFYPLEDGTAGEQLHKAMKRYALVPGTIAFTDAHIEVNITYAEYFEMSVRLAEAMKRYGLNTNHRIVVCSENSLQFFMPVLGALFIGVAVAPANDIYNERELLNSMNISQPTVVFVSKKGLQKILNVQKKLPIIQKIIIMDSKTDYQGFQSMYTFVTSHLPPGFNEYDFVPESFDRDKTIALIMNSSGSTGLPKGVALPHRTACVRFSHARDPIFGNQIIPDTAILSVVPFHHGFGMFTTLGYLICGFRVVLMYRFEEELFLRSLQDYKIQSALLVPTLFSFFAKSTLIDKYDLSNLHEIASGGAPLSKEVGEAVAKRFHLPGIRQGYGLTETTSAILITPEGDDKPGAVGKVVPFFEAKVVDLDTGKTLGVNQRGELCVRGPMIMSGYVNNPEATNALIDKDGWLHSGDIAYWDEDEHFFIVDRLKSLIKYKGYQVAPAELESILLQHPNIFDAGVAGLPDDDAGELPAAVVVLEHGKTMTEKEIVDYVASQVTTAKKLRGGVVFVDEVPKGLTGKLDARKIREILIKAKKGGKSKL
T2 sequence (P11940 whole entry): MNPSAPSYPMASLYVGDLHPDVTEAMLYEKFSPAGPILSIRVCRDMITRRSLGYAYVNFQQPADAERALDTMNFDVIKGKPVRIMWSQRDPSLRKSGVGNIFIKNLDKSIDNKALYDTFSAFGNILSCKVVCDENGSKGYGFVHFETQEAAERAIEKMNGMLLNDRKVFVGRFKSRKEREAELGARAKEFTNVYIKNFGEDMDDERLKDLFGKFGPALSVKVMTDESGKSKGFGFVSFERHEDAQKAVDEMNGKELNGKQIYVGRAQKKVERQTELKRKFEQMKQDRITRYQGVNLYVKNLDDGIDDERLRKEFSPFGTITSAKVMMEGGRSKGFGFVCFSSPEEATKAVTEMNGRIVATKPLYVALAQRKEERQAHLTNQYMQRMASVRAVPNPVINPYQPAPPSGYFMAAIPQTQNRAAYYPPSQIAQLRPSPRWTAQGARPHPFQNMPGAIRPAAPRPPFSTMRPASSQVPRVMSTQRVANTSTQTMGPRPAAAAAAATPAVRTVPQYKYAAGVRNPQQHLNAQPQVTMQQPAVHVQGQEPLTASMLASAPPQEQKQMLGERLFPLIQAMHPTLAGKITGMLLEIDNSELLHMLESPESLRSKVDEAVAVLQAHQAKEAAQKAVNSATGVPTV
Chain of Cytochrome P450 3A4 (P08684 whole entry): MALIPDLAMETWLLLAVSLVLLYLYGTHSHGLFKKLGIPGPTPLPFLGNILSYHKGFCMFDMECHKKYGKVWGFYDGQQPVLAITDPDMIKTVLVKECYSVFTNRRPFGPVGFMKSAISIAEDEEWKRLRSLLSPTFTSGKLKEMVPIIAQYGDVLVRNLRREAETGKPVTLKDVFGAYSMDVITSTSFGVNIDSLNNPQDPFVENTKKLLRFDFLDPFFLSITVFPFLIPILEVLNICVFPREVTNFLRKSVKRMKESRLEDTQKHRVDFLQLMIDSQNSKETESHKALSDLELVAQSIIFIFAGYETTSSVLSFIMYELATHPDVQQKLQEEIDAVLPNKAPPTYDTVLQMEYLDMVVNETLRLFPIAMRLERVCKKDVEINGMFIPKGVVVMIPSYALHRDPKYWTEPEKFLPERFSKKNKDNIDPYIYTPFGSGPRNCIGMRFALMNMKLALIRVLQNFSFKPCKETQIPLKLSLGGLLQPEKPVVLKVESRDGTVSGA
T1 sequence (P49327 whole entry, the tested form may be a part): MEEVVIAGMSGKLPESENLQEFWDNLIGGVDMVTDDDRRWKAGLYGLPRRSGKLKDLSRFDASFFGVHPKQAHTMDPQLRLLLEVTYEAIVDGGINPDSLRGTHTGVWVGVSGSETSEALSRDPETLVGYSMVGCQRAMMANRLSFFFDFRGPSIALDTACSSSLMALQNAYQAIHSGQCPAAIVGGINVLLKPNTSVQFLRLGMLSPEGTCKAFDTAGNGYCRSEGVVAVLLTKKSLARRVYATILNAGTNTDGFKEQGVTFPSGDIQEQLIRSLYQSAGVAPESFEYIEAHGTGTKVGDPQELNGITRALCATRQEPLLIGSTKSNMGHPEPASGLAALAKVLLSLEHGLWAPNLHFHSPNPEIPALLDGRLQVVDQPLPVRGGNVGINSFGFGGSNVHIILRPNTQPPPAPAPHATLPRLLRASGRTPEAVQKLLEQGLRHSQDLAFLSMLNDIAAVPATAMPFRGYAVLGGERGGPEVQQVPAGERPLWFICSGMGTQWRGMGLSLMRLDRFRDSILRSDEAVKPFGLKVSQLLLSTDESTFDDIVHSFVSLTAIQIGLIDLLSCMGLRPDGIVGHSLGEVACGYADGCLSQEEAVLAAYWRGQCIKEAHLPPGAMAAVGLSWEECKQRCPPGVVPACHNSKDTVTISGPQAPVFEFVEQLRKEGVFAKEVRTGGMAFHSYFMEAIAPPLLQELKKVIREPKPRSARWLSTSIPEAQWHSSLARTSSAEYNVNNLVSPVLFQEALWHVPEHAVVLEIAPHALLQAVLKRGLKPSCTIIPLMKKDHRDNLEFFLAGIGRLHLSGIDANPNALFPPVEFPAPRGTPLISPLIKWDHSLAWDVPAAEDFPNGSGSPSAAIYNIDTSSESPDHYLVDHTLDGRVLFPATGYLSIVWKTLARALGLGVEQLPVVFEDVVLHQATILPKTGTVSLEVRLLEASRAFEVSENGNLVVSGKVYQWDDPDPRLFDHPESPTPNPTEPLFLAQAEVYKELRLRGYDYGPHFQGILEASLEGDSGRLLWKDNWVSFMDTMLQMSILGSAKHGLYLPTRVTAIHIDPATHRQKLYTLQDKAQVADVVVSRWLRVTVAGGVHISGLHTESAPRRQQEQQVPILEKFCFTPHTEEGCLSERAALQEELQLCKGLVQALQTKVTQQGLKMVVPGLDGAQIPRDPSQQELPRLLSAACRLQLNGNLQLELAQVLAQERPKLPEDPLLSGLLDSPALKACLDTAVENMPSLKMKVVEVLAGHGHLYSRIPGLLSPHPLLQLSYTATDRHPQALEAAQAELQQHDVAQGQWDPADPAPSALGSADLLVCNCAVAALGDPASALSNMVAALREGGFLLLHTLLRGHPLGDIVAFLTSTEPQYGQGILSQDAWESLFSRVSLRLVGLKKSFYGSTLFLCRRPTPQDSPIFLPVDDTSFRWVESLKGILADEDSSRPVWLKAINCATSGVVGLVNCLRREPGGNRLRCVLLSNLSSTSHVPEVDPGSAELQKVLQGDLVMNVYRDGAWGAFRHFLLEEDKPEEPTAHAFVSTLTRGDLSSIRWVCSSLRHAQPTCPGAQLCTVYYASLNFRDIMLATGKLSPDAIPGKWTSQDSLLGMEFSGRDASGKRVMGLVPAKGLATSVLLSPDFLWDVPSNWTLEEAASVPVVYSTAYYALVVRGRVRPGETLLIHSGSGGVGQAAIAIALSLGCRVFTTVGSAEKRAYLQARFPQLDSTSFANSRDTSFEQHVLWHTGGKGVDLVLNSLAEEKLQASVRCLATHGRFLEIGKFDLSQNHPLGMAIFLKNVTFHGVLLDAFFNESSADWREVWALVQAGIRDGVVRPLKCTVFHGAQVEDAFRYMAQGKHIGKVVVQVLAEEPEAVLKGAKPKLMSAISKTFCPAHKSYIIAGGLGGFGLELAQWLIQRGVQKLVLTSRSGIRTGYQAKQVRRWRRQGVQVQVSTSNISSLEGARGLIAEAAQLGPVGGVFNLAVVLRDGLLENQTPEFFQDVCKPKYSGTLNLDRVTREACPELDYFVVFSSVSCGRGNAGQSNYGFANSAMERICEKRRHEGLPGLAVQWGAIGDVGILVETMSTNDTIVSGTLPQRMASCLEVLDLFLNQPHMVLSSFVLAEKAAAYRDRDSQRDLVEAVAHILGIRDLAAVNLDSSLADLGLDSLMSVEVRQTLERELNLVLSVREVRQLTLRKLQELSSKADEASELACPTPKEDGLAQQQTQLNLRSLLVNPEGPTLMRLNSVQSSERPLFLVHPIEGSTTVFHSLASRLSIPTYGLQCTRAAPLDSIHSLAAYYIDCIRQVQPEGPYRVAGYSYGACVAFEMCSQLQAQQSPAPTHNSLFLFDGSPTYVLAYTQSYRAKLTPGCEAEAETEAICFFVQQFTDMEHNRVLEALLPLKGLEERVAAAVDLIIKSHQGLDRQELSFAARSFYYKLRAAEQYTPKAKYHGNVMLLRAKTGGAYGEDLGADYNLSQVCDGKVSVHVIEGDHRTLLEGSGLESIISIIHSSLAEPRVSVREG
Chain of Paired box protein Pax-8 (Q06710 whole entry, the tested form may be a part): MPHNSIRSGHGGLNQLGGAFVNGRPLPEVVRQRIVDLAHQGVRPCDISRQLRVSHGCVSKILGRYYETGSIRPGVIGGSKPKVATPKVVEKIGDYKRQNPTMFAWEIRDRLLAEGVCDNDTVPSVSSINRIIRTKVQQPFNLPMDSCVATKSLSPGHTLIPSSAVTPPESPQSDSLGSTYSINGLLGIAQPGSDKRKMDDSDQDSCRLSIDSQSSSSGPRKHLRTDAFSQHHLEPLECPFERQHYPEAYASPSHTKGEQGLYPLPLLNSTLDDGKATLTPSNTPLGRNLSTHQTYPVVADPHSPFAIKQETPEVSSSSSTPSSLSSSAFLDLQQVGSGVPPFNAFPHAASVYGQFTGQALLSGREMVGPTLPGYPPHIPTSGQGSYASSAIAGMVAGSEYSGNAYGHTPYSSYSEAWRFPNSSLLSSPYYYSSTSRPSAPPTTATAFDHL

As for `Cn1cc(C2=C(c3cn(CCCSC(=N)N)c4ccccc34)C(=O)NC2=O)c2ccccc21`, the AC50 – broadly, the midpoint of the concentration-response curve, whichever way the signal moves – in [1] was 6.31 µM (inconclusive). For the molecule `C[C@H](CO)N1C[C@H](C)[C@H](CN(C)C(=O)C2CC2)Oc2cc(C#Cc3ccccc3)ccc2S1(=O)=O`, the AC50 in [2] was 4.27 µM (active). Take `CC(=O)N1CC=CC1(CC(C)C)C(=O)NCc1ccccn1` (stereo not drawn): the AC50 in test [1] is 20 µM (inconclusive). As for `C[C@H](CO)N1C[C@H](C)[C@@H](CN(C)Cc2ccc(C(F)(F)F)cc2)Oc2ccc(NS(=O)(=O)c3ccc(F)cc3)cc2CC1=O`, the AC50 in [3] is 11.9 µM (active).

Take `CCc1cccc(C)c1NC(=O)COC(=O)c1cc([N+](=O)[O-])ccc1N1CCOCC1`: the IC50 in test [4] is 10.5 µM (active); in [5] it was 10.7 µM (active). As for `O=C(NC(=S)Nc1ccccc1O)c1ccccc1Cl`, the IC50 in test [6] and in test [7] was > 66 µM (inactive) each time. As for `COc1ccc(CN2C[C@H](C)[C@H](OC)CN(C)C(=O)c3cc(NC(=O)c4nc5ccccc5s4)ccc3OC[C@@H]2C)cc1`, in test [2], the AC50 was 5.29 µM (active). As for `CCCCCc1nc2sc3c(c2c(=O)n1NC(=O)c1ccc([N+](=O)[O-])cc1)CC(C)(C)OC3`, the IC50 in [8] was 12.6 µM (active); in [4] it was 5.09 µM (active); in [5] it was 5.75 µM (active). On to `COc1ccc2c(c1)OCc1c-2oc2cc(OC)ccc12` [DEHYDROVARIABILIN], for which the AC50 in test [1] is 39.8 µM (inconclusive). In the case of `C[C@@H]1CN([C@H](C)CO)S(=O)(=O)c2ccc(C#Cc3ccccc3)cc2O[C@H]1CN(C)S(=O)(=O)c1cn(C)cn1`, in [2], the AC50 is 3.7 µM (active). Take `CCOC(=O)[C@@H]1[C@H]2COc3ccc(Br)cc3[C@@H]2N2C(=O)N(c3cccc(Cl)c3)C(=O)[C@@]12C`: the IC50 is 22.9 µM (inactive) in test [4] and 11.8 µM (active) in [5]. `COCCn1cc(C(=O)N2CCC(C)CC2)c2c3ccccc3n(C)c2c1=O`: the EC50 in [9] and in test [10] was > 112 µM (not active) in each case. For `COc1ccc(NC(=S)N/N=C2\CC(C)(C)Oc3ccc(OC)cc32)cc1`, the IC50 in test [6] and in test [7] was > 66 µM (inactive) throughout. Consider `COc1cc2sc3ccc(C#Cc4ccc(N)cc4)cc3c(=O)c2cc1OC`, for which the IC50 in [11] is > 100 µM (inactive). As for `C[C@@H]1CN([C@H](C)CO)C(=O)c2cc(NS(=O)(=O)c3ccc(F)cc3)ccc2O[C@H]1CN(C)Cc1ccc(C(F)(F)F)cc1`, in test [12], the AC50 is 33.9 µM (active). Turning to `COC(=O)CCC(C)C1CCC2C3C(O)C[C@@H]4CC(O)CC[C@@]4(C)C3CC(O)[C@]12C` (stereo partly drawn), the concentration at half-maximal activity (AC50) in [1] was 20 µM (inconclusive). As to `COc1ccc(C(=O)N/C(=C\c2cn(S(=O)(=O)N(C)C)c3ccccc23)C(=O)N2CCOCC2)cc1`, the IC50 in test [4] is 1.83 µM (active); in [5], 4.26 µM (active).

As to `CC(C)(C)c1nnc(N=C(S)Nc2ccccc2)s1`, the IC50 in test [6] and in test [7] was > 66 µM (inactive) in each case.

In the case of `CCOC(=O)N1CCN(CC(=O)N2CCC(C(N)=O)CC2)CC1`, the EC50 in test [9] and in test [10] was > 112 µM (not active) in each case. Regarding `Cc1cccc(OCC(=O)Nc2nnc[nH]2)c1C`, in test [9], the EC50 (usually the concentration giving half of the maximal effect) is reported as > 112 µM (not active).

Turning to `C[C@@H]1CCCCO[C@H](CN(C)S(=O)(=O)c2ccc(Cl)cc2)[C@@H](C)CN([C@@H](C)CO)C(=O)c2cc(NC(=O)Nc3ccc(C(F)(F)F)cc3)ccc2O1`, in [3], the AC50 is 2.87 µM (active). With `CC(=O)c1cccc(NC(=O)N2CCCC2C(=O)Nc2c(C)cccc2C)c1` (stereo not drawn), the IC50 in test [11] was > 100 µM (inactive). Same read-out and setting: next, `c1ccc2c(c1)OCCc1c-2[nH]c2ccccc12`: > 100 µM (inactive).

Take `Cc1cccc(NC2SC(=O)NC2=O)c1` (stereo not drawn): the IC50 in test [6] and in test [7] was > 66 µM (inactive) in each case.

Take `FC(F)(F)c1cnc2c(-c3ccc(Cl)cc3Cl)noc2c1`: the IC50 in test [11] was > 100 µM (inactive). Take `Cc1ccc(S(=O)(=O)Nc2cccc(-c3ccc(N4CCCCCC4)nn3)c2)c(C)c1`: the IC50 in test [4] was 5.11 µM (active); in [5], 6.9 µM (active). `Nc1n[nH]c(Sc2c([N+](=O)[O-])cc(C(F)(F)F)cc2[N+](=O)[O-])n1`: the IC50 in test [6] and in test [7] was > 66 µM (inactive) throughout.

As to `OC1(c2ccc(Br)cc2)C[N+](c2ccccc2)=C2SCCN21` (stereo not drawn), the IC50 in [6] and in test [7] was > 66 µM (inactive) in each case.

As to `COc1cccc(S(=O)(=O)N2CCC3(CC2)CN[C@@H](CO)c2[nH]c4cc(OC)ccc4c23)c1`, the AC50 in test [2] was 5.39 µM (active). Turning to `CCC(C)NC(=O)CSc1nc2c(sc(=S)n2Cc2ccco2)c(=O)n1-c1ccccc1` (stereo not drawn), the IC50 in test [4] is 30 µM (inactive); in test [5] it was 60.6 µM (inactive). `Cc1nn2cc(-c3ccc(Cl)cc3)nc2s1`: in test [11], the IC50 was 15.6 µM (active). In the case of `CC1=C(C(=O)c2ccccc2)C(c2cn(-c3ccccc3)nc2-c2ccc(Cl)cc2)NC(S)=N1` (stereo not drawn), the 50% effective concentration (EC50) in test [13] was 2.33 µM (active); in test [14], > 30 µM (not active). Besides, the IC50 in test [11] was > 100 µM (inactive). Take `Clc1ccc(OCCSc2ncccn2)cc1`: the IC50 in test [11] is 43.9 µM (active). Turning to `O=C(/C=C/c1cccc([N+](=O)[O-])c1)N1CCN(S(=O)(=O)c2cccs2)CC1`, the IC50 in [4] was 2.69 µM (active); in test [5] it was 2.31 µM (active). In the case of `CCOC(=O)NCCc1ccc(OC)cc1`, the EC50 in test [9] and in [10] was > 112 µM (not active) each time. Consider `CCOC(=O)c1c(-c2ccccc2)csc1NC(=O)C1CCCO1` (stereo not drawn), for which the IC50 in [6] and in test [7] was > 66 µM (inactive) in each case. For `CCOC(=O)N1CCN(Cc2nc3c(c(=O)n(C)c(=O)n3C)n2Cc2cccc3ccccc23)CC1`, the EC50 in test [9] and in [10] was > 112 µM (not active) each time.

For `COc1ccccc1C1C(C(=O)NCc2ccccc2)=C(C)Nc2ncnn21` (stereo not drawn), the IC50 in test [11] is > 100 µM (inactive). With `O=C(Nc1c(C(=O)N2CCOCC2)cnn1-c1ccccc1)c1ccc([N+](=O)[O-])cc1`, the IC50 in test [4] was 11.7 µM (active); in test [5], 9.36 µM (active). As for `C[C@H](CO)N1C[C@H](C)[C@@H](CN(C)Cc2ccc(Oc3ccccc3)cc2)Oc2ccc(NS(=O)(=O)c3cn(C)cn3)cc2CC1=O`, the AC50 in test [2] was 9.82 µM (active). With `Cc1cccc(OCC(=O)Nc2nc[nH]n2)c1C`, in test [10], the EC50 is on record as > 112 µM (not active). For `COc1ccc(NC(=O)N(C)C[C@H]2OCc3ccccc3-c3c(n(C)c4ccccc34)C(=O)N([C@@H](C)CO)C[C@H]2C)c(OC)c1`, in test [2], the AC50 is 4.92 µM (active).

Consider `CC(c1ccccc1)N1CCc2[nH]c(=S)[nH]c(=O)c2C1` (stereo not drawn), for which the IC50 in test [6] and in test [7] was > 66 µM (inactive) each time. Take `CC(C)(C)OC(=O)N1CCc2onc(-c3ccc(Br)cc3)c2C1=O`: the AC50 in test [12] is 64.9 µM (active); in [15], 59.9 µM (active).
